Measured values reported in ChEMBL document CHEMBL1201862, “PubChem BioAssay data set” (2004).
Values joined by “and” are separate entries in the source; they are usually repeats but may differ in a detail not shown here. Equal entries are not always repeated.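 Briefly, cells in 96-well plates were exposed to five compound concentrations for 48 h, and endpoints were estimated by linear interpolation. GI50 = concentration required for 50% inhibition of growth.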 Active and inactive are the calls of the source. No stated cut-off is given here; in the data, active = GI50 up to about 1.1 µM and inactive = higher.

Assays:
Assay in all cases: inhibition of tumour cell growth, NCI panel, 48 h
[1] = system: SF-295
[2] = system: DU-145
[3] = system: A549
[4] = system: TK-10
[5] = system: BT-549
[6] = system: KM12
[7] = system: MDA-MB-435
[8] = system: MDA-N
[9] = system: MCF7
[10] = system: NCI-H460
[11] = system: MDA-MB-231
[12] = system: RXF 393
[13] = system: T47D
[14] = system: NCI-H23
[15] = system: PC-3
[16] = system: Hs-578T
[17] = system: M14
[18] = system: EKVX
[19] = system: CAKI-1
[20] = system: U-251
[21] = system: HOP-62
[22] = system: K562
[23] = system: HCT-15
[24] = system: A498
[25] = system: NCI/ADR-RES
[26] = system: SNB-75
[27] = system: UO-31
[28] = system: CCRF-CEM
[29] = system: SN12C
[30] = system: SK-MEL-5
[31] = system: SNB-19
[32] = system: OVCAR-3
[33] = system: HL-60
[34] = system: 786-0
[35] = system: COLO 205
[36] = system: OVCAR-5
[37] = system: UACC-62
[38] = system: ACHN
[39] = system: HCC 2998
[40] = system: MOLT-4
[41] = system: SK-MEL-28
[42] = system: HCT-116
[43] = system: NCI-H522
[44] = system: OVCAR-4
[45] = system: SK-MEL-2
[46] = system: Malme-3M
[47] = system: SK-OV-3
[48] = system: SW-620
[49] = system: LOX IMVI
[50] = system: UACC-257
[51] = system: HT-29
[52] = system: IGROV-1
[53] = system: HOP-92
[54] = system: OVCAR-8
[55] = system: SF-268
[56] = system: RPMI-8226
[57] = system: SF-539

O=C1c2c(O)cc(O)cc2OC(c2ccc(O)cc2O)C1O (centres undefined)
GI50 [1]: > 100 µM (inactive)
GI50 [2]: > 100 µM (inactive)
GI50 [3]: > 100 µM (inactive)
GI50 [4]: > 100 µM (inactive)
GI50 [5]: > 100 µM (inactive)
GI50 [6]: > 100 µM (inactive)
GI50 [7]: > 100 µM (inactive)
GI50 [8]: > 100 µM (inactive)
GI50 [9]: > 100 µM (inactive)
GI50 [10]: > 100 µM (inactive)
GI50 [11]: > 100 µM (inactive)
GI50 [12]: > 100 µM (inactive)
GI50 [13]: > 100 µM (inactive)
GI50 [14]: > 100 µM (inactive)
GI50 [15]: > 100 µM (inactive)
GI50 [16]: > 100 µM (inactive)
GI50 [17]: > 100 µM (inactive)
GI50 [18]: > 100 µM (inactive)
GI50 [19]: > 100 µM (inactive)

CC(=O)OCC1OC(Oc2cc(C)c(O)cc2C/C=C(\C)CC/C=C(\C)C[C@@H](C=C(C)C)OC(C)=O)C(O)C(OC(C)=O)C1OC(C)=O (some centres undefined)
GI50 [1]: 22.2 µM (inactive)
GI50 [2]: 28.6 µM (inactive)
GI50 [20]: 25.5 µM (inactive)
GI50 [3]: 19.1 µM (inactive)
GI50 [4]: 22.9 µM (inactive)
GI50 [21]: 28.4 µM (inactive)
GI50 [5]: 16.8 µM (inactive)
GI50 [6]: 15.7 µM (inactive)
GI50 [22]: 11.6 µM (inactive)
GI50 [23]: 16.3 µM
GI50 [24]: 15.2 µM (inactive)
GI50 [7]: 16.5 µM (inactive)
GI50 [25]: 16.8 µM (inactive)
GI50 [8]: 25.2 µM (inactive)
GI50 [26]: 13.2 µM (inactive)
GI50 [9]: 16 µM (inactive)
GI50 [10]: 14.2 µM (inactive)
GI50 [11]: 37.3 µM (inactive)
GI50 [27]: 18 µM (inactive)
GI50 [28]: 9.46 µM (inactive)
GI50 [29]: 20.2 µM (inactive)
GI50 [30]: 9.14 µM (inactive)
GI50 [31]: > 50 µM (inactive)
GI50 [32]: 13.4 µM (inactive)
GI50 [12]: 12 µM (inactive)
GI50 [33]: 9.79 µM (inactive)
GI50 [34]: 39.1 µM (inactive)
GI50 [35]: 9.38 µM (inactive)
GI50 [36]: > 50 µM (inactive)
GI50 [13]: 10.1 µM (inactive)
GI50 [14]: 23.3 µM (inactive)
GI50 [37]: 13.1 µM (inactive)
GI50 [38]: 20 µM (inactive)
GI50 [39]: 16.9 µM (inactive)
GI50 [15]: 18.2 µM (inactive)
GI50 [40]: 8.26 µM (inactive)
GI50 [16]: 13.6 µM (inactive)
GI50 [41]: 44.5 µM (inactive)
GI50 [42]: 23.2 µM (inactive)
GI50 [43]: 17.1 µM (inactive)
GI50 [44]: 23.6 µM (inactive)
GI50 [17]: 23.3 µM (inactive)
GI50 [45]: 19.9 µM (inactive)
GI50 [46]: > 50 µM (inactive)
GI50 [47]: > 50 µM (inactive)
GI50 [48]: 23.6 µM (inactive)
GI50 [49]: 13.9 µM (inactive)
GI50 [50]: 10 µM (inactive)
GI50 [51]: 17.7 µM (inactive)
GI50 [52]: 33.6 µM (inactive)
GI50 [53]: > 50 µM (inactive)
GI50 [18]: 38.6 µM (inactive)
GI50 [54]: 16.1 µM (inactive)
GI50 [55]: 28.2 µM (inactive)
GI50 [19]: > 50 µM (inactive)
GI50 [56]: 9.84 µM (inactive)

CN1C=c2c3c(ccc2=C2C=CC4C=C5OCOC5=CC4=C21)OCO3 (centres undefined)
GI50 [20]: 1.57 µM (inactive) and 2.34 µM (inactive)
GI50 [21]: 2.28 µM (inactive) and 1.55 µM (inactive)
GI50 [5]: 2.15 µM (inactive) and 1.58 µM (inactive)
GI50 [23]: 1.41 µM and 1.7 µM
GI50 [7]: 1.06 µM (active) and 1.85 µM (inactive)
GI50 [8]: 1.85 µM (inactive) and 1.35 µM (inactive)
GI50 [26]: 1.87 µM (inactive) and 3.72 µM (inactive)
GI50 [57]: 2.28 µM (inactive) and 1.71 µM (inactive)
GI50 [11]: 2 µM (inactive) and 1.22 µM (inactive)
GI50 [27]: 2.1 µM (inactive) and 1.47 µM (inactive)
GI50 [29]: 1.92 µM (inactive) and 1.56 µM (inactive)
GI50 [30]: 2.44 µM (inactive) and 1.6 µM (inactive)
GI50 [32]: 871 nM (active) and 1.58 µM (inactive)
GI50 [12]: 1.98 µM (inactive) and 1.04 µM (active)
GI50 [33]: 285 nM (active) and 170 nM (active)
GI50 [34]: 1.66 µM (inactive) and 1.31 µM (inactive)
GI50 [35]: 1.89 µM (inactive) and 1.4 µM (inactive)
GI50 [13]: 1.75 µM (inactive) and 2.28 µM (inactive)
GI50 [14]: 1.53 µM (inactive) and 2.98 µM (inactive)
GI50 [15]: 2.96 µM (inactive) and 1.52 µM (inactive)
GI50 [16]: 1.9 µM (inactive) and 2.65 µM (inactive)
GI50 [41]: 1.59 µM (inactive) and 2.89 µM (inactive)
GI50 [42]: 1.66 µM (inactive) and 1.02 µM (active)
GI50 [43]: 1.5 µM (inactive) and 1.45 µM (inactive)
GI50 [44]: 1.85 µM (inactive) and 3.11 µM (inactive)
GI50 [17]: 1.21 µM (inactive) and 1.73 µM (inactive)
GI50 [45]: 2.69 µM (inactive) and 1.95 µM (inactive)
GI50 [46]: 2.44 µM (inactive) and 1.6 µM (inactive)
GI50 [48]: 1.05 µM (active) and 1.58 µM (inactive)
GI50 [49]: 1.8 µM (inactive) and 1.6 µM (inactive)
GI50 [50]: 3.15 µM (inactive) and 1.76 µM (inactive)
GI50 [51]: 2.07 µM (inactive) and 1.62 µM (inactive)
GI50 [52]: 1.99 µM (inactive) and 1.65 µM (inactive)
GI50 [55]: 2.42 µM (inactive) and 1.61 µM (inactive)
